Data on 28 compounds can be found in patent publication US10745346B2, “Agonists of protein tyrosine phosphatase SHP-1” (priority 2015, dated 2020).

By IC50 is commonly meant the concentration at which inhibition is half-maximal.

Assay [1] has as its system PLC5 cells (a hepatocellular carcinoma cell line). The assay is described as follows: Cytotoxicity, MTT cell viability assay. The format is cell-based. To be noted: 72 h exposure. As for the experimental part: PLC5 cells (a hepatocellular carcinoma cell line) were seeded at 5×10^3 cells per well in 96-well plates. Then, cells were exposed to SC derivatives at the indicated doses for 72 h. After that, cells were incubated with MTT (1 mg/ml) (Sigma-Aldrich, St. Louis, Mo.) for 2 h at 37° C. Cell viability was then assessed by measuring the absorbance at 570 nm using a microplate reader.
(In general: Tetrazolium assays rely on reduction of a dye to a coloured formazan, in cell work by metabolically active cells.)

Assay [2] concerns the target Recombinant SHP-1 protein (Homo sapiens, UniProt P29350). The assay is described as follows: SHP-1 phosphatase activity assay (RediPlate 96 EnzChek Tyrosine Phosphatase Assay kit). The format is biochemical. To be noted: SC derivatives at 1 μM for 2 hr; recombinant SHP-1 25 ng; control DMSO = 100; mean±SD (N=3). As for the experimental part:
Effects of SC Derivatives on Phosphatase Activity in Recombinant SHP-1 RediPlate 96 EnzChek Tyrosine Phosphatase Assay kit (R-22067) was used for SHP-1 activity assay (Molecular Probes). Recombinant SHP-1 protein (25 ng) was reacted with SC derivatives at 1 μM for 2 hr. Then the SHP-1 phosphatase activity assay was performed according to the user's manual and the absorbance was measured at 465 nm. The control group was DMSO, which functioned as the solvent of the SC derivatives. The values were expressed by mean±SD (N=3).

Structures are written as SMILES.

Recombinant SHP-1 protein, sequence (P29350 whole entry): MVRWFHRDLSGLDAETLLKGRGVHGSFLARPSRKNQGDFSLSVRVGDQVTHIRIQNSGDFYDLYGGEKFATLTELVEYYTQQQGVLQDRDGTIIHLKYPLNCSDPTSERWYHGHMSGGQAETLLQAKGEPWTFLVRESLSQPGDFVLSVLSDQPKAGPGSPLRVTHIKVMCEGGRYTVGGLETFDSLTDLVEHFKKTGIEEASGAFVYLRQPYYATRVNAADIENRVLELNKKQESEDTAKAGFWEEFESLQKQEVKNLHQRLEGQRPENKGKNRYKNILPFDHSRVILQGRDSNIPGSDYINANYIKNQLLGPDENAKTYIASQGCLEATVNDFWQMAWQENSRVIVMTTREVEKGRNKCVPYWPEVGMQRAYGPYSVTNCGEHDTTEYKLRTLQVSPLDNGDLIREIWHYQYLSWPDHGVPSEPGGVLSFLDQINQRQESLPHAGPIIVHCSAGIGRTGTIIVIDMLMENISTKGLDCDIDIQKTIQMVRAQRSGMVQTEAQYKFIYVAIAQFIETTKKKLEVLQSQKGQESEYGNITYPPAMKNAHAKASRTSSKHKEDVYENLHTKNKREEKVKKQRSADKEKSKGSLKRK

As for `Cc1ccc(NC(=O)Nc2ccc(C)c(Oc3ccc(C#N)nc3)c2)cc1Oc1ccc(C#N)nc1` [compound 86, 1,3-bis(3-((6-cyanopyridin-3-yl)oxy)-4-methylphenyl)urea], in assay [1], the half-maximal inhibitory concentration (IC50) is > 10000 nM. The “SHP-1 Activity (% of control)” value in assay [2] is 81.06 ± 7.61 % of control.
The corresponding values for `Cc1ccc(NC(=O)Nc2ccc(C)c(Oc3cnc(C#N)c(F)c3)c2)cc1Oc1cnc(C#N)c(F)c1` [compound 104, 1,3-bis(3-((6-cyano-5-fluoropyridin-3-yl)oxy)-4-methylphenyl)urea] are > 10000 nM and 139.74 ± 4.92 % of control.
Consider `Cc1ccc(NC(=O)Nc2cccc3ccc(Oc4ccc(C#N)cc4)cc23)cc1Oc1ccc(C#N)cc1` [compound 107, 1-(3-(4-cyanophenoxy)-4-methylphenyl)-3-(7-(4-cyanophenoxy)naphthalen-1-yl)urea], for which the IC50 in assay [1] is > 10000 nM. Further, the “SHP-1 Activity (% of control)” value in assay [2] is listed as 149.03 ± 14.47 % of control.
The compound `Cc1cc(Oc2cc(NC(=O)Nc3cccc(C(F)(F)F)c3)ccc2Cl)ccc1C#N` [compound 174, 1-(4-chloro-3-(4-cyano-3-methylphenoxy)phenyl)-3-(3-(trifluoromethyl)phenyl)urea] gave an IC50 in assay [1] of 1460 nM. In addition, in assay [2], the “SHP-1 Activity (% of control)” value is reported as 203.95 ± 30.20 % of control.
`N#Cc1ccc(Oc2cc(NC(=O)Nc3cc(C(F)(F)F)cc(C(F)(F)F)c3)ccc2Cl)cc1` [compound 148, 1-(3,5-bis(trifluoromethyl)phenyl)-3-(4-chloro-3-(4-cyanophenoxy)phenyl) urea]: half-maximal inhibition in assay [1] (IC50) required 220 nM. For the same compound, the “SHP-1 Activity (% of control)” value in assay [2] is listed as 363.95 ± 18.11 % of control.
The corresponding values for `Cc1ccc(NC(=O)Nc2cccc(C(F)(F)F)c2)cc1Oc1ccc(C#N)cc1` [compound 134, 1-(3-(4-cyanophenoxy)-4-methylphenyl)-3-(3-(trifluoromethyl)phenyl)urea] are 740 nM and 152.29 ± 7.92 % of control.
The like results for `N#Cc1ccc(Oc2ccc3cccc(NC(=O)C4(C(=O)O)CC4)c3c2)cc1` [compound 75, 1-((7-(4-cyanophenoxy)naphthalen-1-yl)carbamoyl)cyclopropane carboxylic acid] were, in that order, > 10000 nM and 111.30 ± 9.50 % of control.
In assay [1], `Cc1ccc(NC(=O)Nc2ccc(Cl)c(C(F)(F)F)c2)cc1Oc1ccc(C#N)cc1` [compound 133, 1-(4-chloro-3-(trifluoromethyl)phenyl)-3-(3-(4-cyanophenoxy)-4-methylphenyl)urea] came in with an IC50 of 440 nM. Further, the “SHP-1 Activity (% of control)” value in assay [2] is reported as 253.18 ± 26.17 % of control.
The like results for `N#Cc1ccc(Oc2ccc3c(c2)OCCN3C(=O)Nc2ccc(F)c(C(F)(F)F)c2)cc1` [compound 166, 7-(4-cyanophenoxy)-N-(4-fluoro-3-(trifluoromethyl)phenyl)-2H-benzo[b][1,4]oxazine-4(3H)-carboxamide] were, in that order, 1320 nM and 51.89 ± 8.16 % of control.
On to `N#CCc1ccc(NC(=O)Nc2ccc(F)c(Oc3ccc(C#N)cc3)c2)cc1` [compound 153, 1-(4-(cyanomethyl)phenyl)-3-(3-(4-cyanophenoxy)-4-fluorophenyl)urea], for which half-maximal inhibition in assay [1] (IC50) required 1830 nM. In addition, the “SHP-1 Activity (% of control)” value in assay [2] is 135.54 ± 5.11 % of control.
The corresponding values for `Cc1ccc(NC(=O)Nc2cc(C(F)(F)F)cc(C(F)(F)F)c2)cc1Oc1ccc(C#N)cc1` [compound 131, 1-(3,5-bis(trifluoromethyl)phenyl)-3-(3-(4-cyanophenoxy)-4-methylphenyl) urea] are 230 nM and 327.86 ± 34.79 % of control.
As to `Cc1ccc(NC(=O)Nc2ccc(Cl)c(C(F)(F)F)c2)cc1Oc1ccc(C#N)c(Br)c1` [compound 89, 1-(3-(3-bromo-4-cyanophenoxy)-4-methylphenyl)-3-(4-chloro-3-(trifluoromethyl)phenyl)urea], the IC50 in assay [1] was 830 nM. Besides, the “SHP-1 Activity (% of control)” value in assay [2] is given as 143.45 ± 15.17 % of control.
The like results for `Cc1ccc(NC(=O)Nc2ccc(Cl)c(C(F)(F)F)c2)cc1Oc1ccc(C#N)c(F)c1` [compound 88, 1-(4-chloro-3-(trifluoromethyl)phenyl)-3-(3-(4-cyano-3-fluorophenoxy)-4-methylphenyl)urea] were, in that order, 1050 nM and 100.48 ± 13.31 % of control.
As for `N#Cc1ccc(Oc2ccc(NC(=O)Nc3ccc(Cl)c(C(F)(F)F)c3)c(F)c2)cc1` [compound 96, 1-(4-chloro-3-(trifluoromethyl)phenyl)-3-(4-(4-cyanophenoxy)-2-fluorophenyl)urea], in assay [1], half-maximal inhibition (IC50) was put at 410 nM. Moreover, in assay [2], the “SHP-1 Activity (% of control)” value is on record as 194.52 ± 17.89 % of control.
Consider `N#Cc1ccc(Oc2ccc3c(c2)N(C(=O)Nc2cc(C(F)(F)F)cc(C(F)(F)F)c2)CCO3)cc1` [compound 158, N-(3,5-bis(trifluoromethyl)phenyl)-6-(4-cyanophenoxy)-2H-benzo[b][1,4]oxazine-4(3H)-carboxamide], for which half-maximal inhibition in assay [1] (IC50) was put at 3310 nM. Also, in assay [2], the “SHP-1 Activity (% of control)” value is recorded as 102.07 ± 3.47 % of control.
In the case of `N#Cc1ccc(Oc2cc(NC(=O)Nc3cccc(C(F)(F)F)c3)ccc2Cl)cc1Cl` [compound 178, 1-(4-chloro-3-(3-chloro-4-cyanophenoxy)phenyl)-3-(3-(trifluoromethyl)phenyl)urea], half-maximal inhibition in assay [1] (IC50) was put at 1490 nM. For the same compound, the “SHP-1 Activity (% of control)” value in assay [2] was 106.69 ± 9.47 % of control.
The corresponding values for `N#Cc1ccc(Oc2ccc(NC(=O)Nc3ccc(Oc4ccc(C#N)cc4)cc3F)c(F)c2)cc1` [compound 106, 1,3-bis(4-(4-cyanophenoxy)-2-fluorophenyl)urea] are > 10000 nM and 147.13 ± 8.51 % of control.
The like results for `N#Cc1ccc(Oc2cccc(NC(=O)Nc3ccc(Cl)c(C(F)(F)F)c3)c2)c(F)c1` [compound 80, 1-(4-chloro-3-(trifluoromethyl)phenyl)-3-(3-(4-cyano-2-fluorophenoxy)phenyl) urea] were, in that order, 1670 nM and “X91.93 ± 8.09 % of control”.
The corresponding values for `N#Cc1ccc(Oc2cc(NC(=O)Nc3ccc(Cl)c(C(F)(F)F)c3)ccc2F)cc1` [compound 111, 1-(4-chloro-3-(trifluoromethyl)phenyl)-3-(3-(4-cyanophenoxy)-4-fluorophenyl)urea] are 240 nM and 156.55 ± 5.99 % of control.
In the case of `N#Cc1ccc(Oc2ccc3c(c2)OCCN3C(=O)Nc2cc(C(F)(F)F)cc(C(F)(F)F)c2)cc1` [compound 164, N-(3,5-bis(trifluoromethyl)phenyl)-7-(4-cyanophenoxy)-2H-benzo[b][1,4]oxazine-4(3H)-carboxamide], the half-inhibitory concentration (IC50) in assay [1] was > 10000 nM. Besides, the “SHP-1 Activity (% of control)” value in assay [2] is 83.70 ± 10.90 % of control.
Turning to `Cc1cc(Oc2cc(NC(=O)Nc3cc(C(F)(F)F)cc(C(F)(F)F)c3)ccc2Cl)ccc1C#N` [compound 176, 1-(3,5-bis(trifluoromethyl)phenyl)-3-(4-chloro-3-(4-cyano-3-methylphenoxy)phenyl)urea], the IC50 in assay [1] was 650 nM. The “SHP-1 Activity (% of control)” value in assay [2] is 112.57 ± 3.69 % of control.
With `N#CCc1ccc(NC(=O)N2CCOc3cc(Oc4ccc(C#N)cc4)ccc32)cc1` [compound 167, N-(4-(cyanomethyl)phenyl)-7-(4-cyanophenoxy)-2H-benzo[b][1,4]oxazine-4(3H)-carboxamide], the IC50 in assay [1] was 2550 nM. Besides, in assay [2], the “SHP-1 Activity (% of control)” value is listed as 110.58 ± 10.14 % of control.
`N#Cc1ccc(Oc2ccc3cccc(NC(=O)Nc4ccc(Cl)c(C(F)(F)F)c4)c3c2)cc1Cl` [compound 109, 1-(4-chloro-3-(trifluoromethyl)phenyl)-3-(7-(3-chloro-4-cyanophenoxy)naphthalen-1-yl)urea] came in with an IC50 in assay [1] of 2070 nM. In assay [2], the “SHP-1 Activity (% of control)” value is 143.61 ± 5.36 % of control.
The corresponding values for `Cc1ccc(NC(=O)Nc2ccc(C)c(Oc3ccc(/C(N)=N/O)cc3)c2)cc1Oc1ccc(/C(N)=N/O)cc1` [compound 94, (1Z,1′Z)-4,4′-(((carbonylbis(azanediyl))bis(2-methyl-5,1-phenylene))bis(oxy))bis(N′-hydroxybenzimidamide)] are > 10000 nM and 114.65 ± 13.55 % of control.
Take `O=C(Nc1ccc(Cl)c(C(F)(F)F)c1)Nc1ccc(Cl)c(C(F)(F)F)c1` [compound 78, 1,3-bis(4-chloro-3-(trifluoromethyl)phenyl)urea]: the IC50 in assay [1] is > 10000 nM. In assay [2], the “SHP-1 Activity (% of control)” value was 113.65 ± 13.93 % of control.
Consider `N#Cc1ccc(Oc2cc(NC(=O)Nc3cccc(C(F)(F)F)c3)ccc2Cl)cc1` [compound 138, 1-(4-chloro-3-(4-cyanophenoxy)phenyl)-3-(3-(trifluoromethyl)phenyl)urea], for which the half-inhibitory concentration (IC50) in assay [1] is 570 nM. Moreover, the “SHP-1 Activity (% of control)” value in assay [2] is 196.54 ± 22.4 % of control.
`N#Cc1ccc(Oc2cc(NC(=O)Nc3ccc(Cl)c(C(F)(F)F)c3)ccc2Cl)cc1` [compound 139, 1-(4-chloro-3-(4-cyanophenoxy)phenyl)-3-(4-chloro-3-(trifluoromethyl)phenyl)urea]: in assay [1], the IC50 was determined as 310 nM. Further, the “SHP-1 Activity (% of control)” value in assay [2] is reported as 280.62 ± 16.62 % of control.
The like results for `Cc1ccc(NC(=O)Nc2ccc(C)c(Oc3ccc(C#N)c(Br)c3)c2)cc1Oc1ccc(C#N)c(Br)c1` [compound 83, 1,3-bis(3-(3-bromo-4-cyanophenoxy)-4-methylphenyl)urea] were, in that order, 250 nM and 110.68 ± 13.38 % of control.
